Results published in ChEMBL document CHEMBL3044631, “Synthesis of 2-[4,5-dimethyl-1-(phenylamino)-1H-imidazol-2-ylthio]-N-(thiazole-2-yl)acetamide derivatives and their anticancer activities” (2013).

How the values were obtained:
Format in all cases: functional
[1] = tested on: NCI-H460; experiment: Anticancer activity against Homo sapiens (human) NCI-H460 cells assessed as cell growth promotion at 10 uM after 48 hr by SRB assay
[2] = tested on: HL-60(TB); experiment: Anticancer activity against Homo sapiens (human) HL-60(TB) cells assessed as cell growth promotion at 10 uM after 48 hr by SRB assay
[3] = tested on: A549; experiment: Anticancer activity against Homo sapiens (human) A549/ATCC cells assessed as cell growth promotion at 10 uM after 48 hr by SRB assay
[4] = tested on: DU-145; experiment: Anticancer activity against Homo sapiens (human) DU145 cells assessed as cell growth promotion at 10 uM after 48 hr by SRB assay
[5] = tested on: HOP-92; experiment: Anticancer activity against Homo sapiens (human) HOP92 cells assessed as cell growth promotion at 10 uM after 48 hr by SRB assay
[6] = tested on: MCF7; experiment: Anticancer activity against Homo sapiens (human) MCF7 cells assessed as cell growth promotion at 10 uM after 48 hr by SRB assay
[7] = tested on: 786-0; experiment: Anticancer activity against Homo sapiens (human) 786-0 cells assessed as cell growth promotion at 10 uM after 48 hr by SRB assay
[8] = tested on: OVCAR-3; experiment: Anticancer activity against Homo sapiens (human) OVCAR3 cells assessed as cell growth promotion at 10 uM after 48 hr by SRB assay
[9] = tested on: NCI/ADR-RES; experiment: Anticancer activity against Homo sapiens (human) NCI/ADR-RES cells assessed as cell growth promotion at 10 uM after 48 hr by SRB assay
[10] = tested on: SF-268; experiment: Anticancer activity against Homo sapiens (human) SF268 cells assessed as cell growth promotion at 10 uM after 48 hr by SRB assay
[11] = tested on: HCT-116; experiment: Anticancer activity against Homo sapiens (human) HCT116 cells assessed as cell growth promotion at 10 uM after 48 hr by SRB assay
[12] = tested on: Malme-3M; experiment: Anticancer activity against Homo sapiens (human) MALME-3M cells assessed as cell growth promotion at 10 uM after 48 hr by SRB assay
[13] = tested on: SF-295; experiment: Anticancer activity against Homo sapiens (human) SF295 cells assessed as cell growth promotion at 10 uM after 48 hr by SRB assay
[14] = tested on: HOP-62; experiment: Anticancer activity against Homo sapiens (human) HOP62 cells assessed as cell growth promotion at 10 uM after 48 hr by SRB assay
[15] = tested on: HT-29; experiment: Anticancer activity against Homo sapiens (human) HT-29 cells assessed as cell growth promotion at 10 uM after 48 hr by SRB assay
[16] = tested on: MOLT-4; experiment: Anticancer activity against Homo sapiens (human) MOLT4 cells assessed as cell growth promotion at 10 uM after 48 hr by SRB assay
[17] = tested on: EKVX; experiment: Anticancer activity against Homo sapiens (human) EKVX cells assessed as cell growth promotion at 10 uM after 48 hr by SRB assay
[18] = tested on: SK-MEL-5; experiment: Anticancer activity against Homo sapiens (human) SK-MEL-5 cells assessed as cell growth promotion at 10 uM after 48 hr by SRB assay
[19] = tested on: MDA-MB-435; experiment: Anticancer activity against Homo sapiens (human) MDA-MB-435 cells assessed as cell growth promotion at 10 uM after 48 hr by SRB assay
[20] = tested on: SN12C; experiment: Anticancer activity against Homo sapiens (human) SN12C cells assessed as cell growth promotion at 10 uM after 48 hr by SRB assay
[21] = tested on: SK-MEL-2; experiment: Anticancer activity against Homo sapiens (human) SK-MEL-2 cells assessed as cell growth promotion at 10 uM after 48 hr by SRB assay
[22] = tested on: PC-3; experiment: Anticancer activity against Homo sapiens (human) PC3 cells assessed as cell growth promotion at 10 uM after 48 hr by SRB assay
[23] = tested on: MDA-MB-231; experiment: Anticancer activity against Homo sapiens (human) MDA-MB-231/ATCC cells assessed as cell growth promotion at 10 uM after 48 hr by SRB assay
[24] = tested on: NCI-H522; experiment: Anticancer activity against Homo sapiens (human) NCI-H522 cells assessed as cell growth promotion at 10 uM after 48 hr by SRB assay
[25] = tested on: CAKI-1; experiment: Anticancer activity against Homo sapiens (human) CAKI-1 cells assessed as cell growth promotion at 10 uM after 48 hr by SRB assay
[26] = tested on: RPMI-8226; experiment: Anticancer activity against Homo sapiens (human) RPMI8226 cells assessed as cell growth promotion at 10 uM after 48 hr by SRB assay
[27] = tested on: OVCAR-4; experiment: Anticancer activity against Homo sapiens (human) OVCAR4 cells assessed as cell growth promotion at 10 uM after 48 hr by SRB assay
[28] = tested on: TK-10; experiment: Anticancer activity against Homo sapiens (human) TK10 cells assessed as cell growth promotion at 10 uM after 48 hr by SRB assay
[29] = tested on: Hs-578T; experiment: Anticancer activity against Homo sapiens (human) Hs 578T cells assessed as cell growth promotion at 10 uM after 48 hr by SRB assay
[30] = tested on: SF-539; experiment: Anticancer activity against Homo sapiens (human) SF539 cells assessed as cell growth promotion at 10 uM after 48 hr by SRB assay
[31] = tested on: K562; experiment: Anticancer activity against Homo sapiens (human) K562 cells assessed as cell growth promotion at 10 uM after 48 hr by SRB assay
[32] = tested on: HCT-15; experiment: Anticancer activity against Homo sapiens (human) HCT15 cells assessed as cell growth promotion at 10 uM after 48 hr by SRB assay
[33] = tested on: SK-OV-3; experiment: Anticancer activity against Homo sapiens (human) SKOV3 cells assessed as cell growth promotion at 10 uM after 48 hr by SRB assay
[34] = tested on: UACC-62; experiment: Anticancer activity against Homo sapiens (human) UACC62 cells assessed as cell growth promotion at 10 uM after 48 hr by SRB assay
[35] = tested on: KM12; experiment: Anticancer activity against Homo sapiens (human) KM12 cells assessed as cell growth promotion at 10 uM after 48 hr by SRB assay
[36] = tested on: MDA-MB-468; experiment: Anticancer activity against Homo sapiens (human) MDA-MB-468 cells assessed as cell growth promotion at 10 uM after 48 hr by SRB assay
[37] = tested on: HCC 2998; experiment: Anticancer activity against Homo sapiens (human) HCC2998 cells assessed as cell growth promotion at 10 uM after 48 hr by SRB assay
[38] = tested on: UACC-257; experiment: Anticancer activity against Homo sapiens (human) UACC257 cells assessed as cell growth promotion at 10 uM after 48 hr by SRB assay
[39] = tested on: COLO 205; experiment: Anticancer activity against Homo sapiens (human) COLO205 cells assessed as cell growth promotion at 10 uM after 48 hr by SRB assay
[40] = tested on: ACHN; experiment: Anticancer activity against Homo sapiens (human) ACHN cells assessed as cell growth promotion at 10 uM after 48 hr by SRB assay

Cc1nc(SCC(=O)Nc2nccs2)n(Nc2ccc(Cl)cc2)c1C
Activity [1]: 106%
Activity [2]: 95.84%
Activity [3]: 101.96%
Activity [4]: 122.72%
Activity [5]: 96.74%
Activity [6]: 104.33%
Activity [7]: 111.66%
Activity [8]: 117.12%
Activity [9]: 100.18%
Activity [10]: 112.74%
Activity [11]: 94.47%
Activity [12]: 140.83%
Activity [13]: 97.66%
Activity [14]: 88.3%
Activity [15]: 108.32%
Activity [16]: 117.57%
Activity [17]: 123.2%
Activity [18]: 84.95%
Activity [19]: 110.71%
Activity [20]: 96.39%
Activity [21]: 116.11%
Activity [22]: 103.63%
Activity [23]: 98.69%
Activity [24]: 111.97%
Activity [25]: 101.14%
Activity [26]: 104.54%
Activity [27]: 102.19%
Activity [28]: 120.55%
Activity [29]: 121.05%
Activity [30]: 90.1%
Activity [31]: 112.86%
Activity [32]: 102.77%
Activity [33]: 102.45%
Activity [34]: 104.39%
Activity [35]: 113.75%
Activity [36]: 105.66%
Activity [37]: 115.62%
Activity [38]: 107.66%
Activity [39]: 121.19%
Activity [40]: 104.69%
